Results taken from US20040132707A1, “Catecholate beta-lactam conjugates, method for producing the same and the use thereof” (Gruenenthal GmbH, priority 2001, published 2004).
Converted amounts (≈) assume the structure as drawn.

Legend:
Assay in all cases: Microdilution MIC assay (NCCLS M7-A)
Assay type in all cases: cell-based
[1] = test system: Serratia marcescens SG 621; conditions: strain SG621; for MIC: Serratia marcescens, read-out: MIC Serratia marc. SG621
Procedure: (§1) The antibacterial activity was tested by a microdilution assay according to National Committee for Clinical Laboratory Standards, 1998, Methods for dilution antimicrobial susceptibility tests for bacteria that grow aerobically, Approved standard M7-A, NCCLS, Villanova, Pa.
(§2) The minimal inhibition concentrations (MICs) were determined for the following bacterial strains: The Gram-negative strains Pseudomonas aeruginosa SG 137, ATCC 27853, Escherichia coli ATCC 25922, Klebsiella pneumoniae ATCC 10031, Stenotrophomonas maltophilia GN 12873, Serratia marcescens SG 621 as well as for the Gram-positive strain Staphylococcus aureus SG 511.

[2] = test system: Pseudomonas aeruginosa ATCC 27853; conditions: strain ATCC 27853; for MIC: Pseudomonas aeruginosa, ATCC27853
Procedure: as §1, §2

[3] = test system: Staphylococcus aureus SG 511; conditions: strain SG511; for MIC: Staphylococcus aureus, read-out: MIC Staph. aureus SG511
Procedure: as §1, §2

[4] = test system: Escherichia coli ATCC 25922; conditions: strain ATCC 25922; for MIC: Escherichia coli, ATCC25922, read-out: MIC E. coli ATCC 25922
Procedure: as §1, §2

[5] = test system: Klebsiella pneumoniae ATCC 10031; conditions: strain ATCC10031; for MIC: Klebsiella pneumoniae
Procedure: as §1, §2

[6] = test system: Pseudomonas aeruginosa SG 137; conditions: strain SG137; for MIC: Pseudomonas aeruginosa
Procedure: as §1, §2

[7] = test system: Stenotrophomonas maltophilia GN 12873; conditions: strain GN12873; for MIC: Stenotrophomonas maltophilia, read-out: MIC Stenotroph. maltoph. GN12873
Procedure: as §1, §2

MIC [1] | MIC [2] | MIC [3] | MIC [4] | MIC [5] | MIC [6] | MIC [7] | SMILES | MIC Serratia marc. SG621 [1] | MIC Pseudomonas aeruginosa ATCC 27853 [2] | MIC Staph. aureus SG511 [3] | MIC E. coli ATCC 25922 [4] | MIC Klebsiella pneumoniae ATCC10031 [5] | MIC Pseudomonas aeruginosa SG137 [6] | MIC Stenotroph. maltoph. GN12873 [7]
– | – | – | – | – | – | – | CC(=O)Oc1cccc(C(=O)NCCN(CCNC(=O)c2cccc(OC(C)=O)c2OC(C)=O)CCN(Cc2ccc(C(=O)NC(C(=O)NC3C(=O)N4C3SC(C)(C)C4C(=O)O)c3ccccc3)cc2)C(=O)c2cccc(OC(C)=O)c2OC(C)=O)c1OC(C)=O (stereo not drawn) [Example 15] | 0.4 µg/mL (≈ 0.314 µM) | 0.2 µg/mL (≈ 0.157 µM) | 0.78 µg/mL (≈ 0.613 µM) | 0.78 µg/mL (≈ 0.613 µM) | 0.1 µg/mL (≈ 0.0786 µM) | <0.05 µg/mL | <0.05 µg/mL
– | – | – | – | – | – | – | COC(=O)Oc1cccc(C(=O)N(C)CCCN(Cc2ccc(C(=O)NC(C(=O)NC3C(=O)N4C3SC(C)(C)C4C(=O)O)c3ccccc3)cc2)C(=O)c2cccc(OC(=O)OC)c2OC(=O)OC)c1OC(=O)OC (stereo not drawn) [Example 16, N-{4-[2,6-bis-(2,3-di-methoxycarbonyloxybenzoyl)-2,6-diaza-heptyl]-benzoyl}-ampicillin] | 1.56 µg/mL (≈ 1.47 µM) | 0.78 µg/mL (≈ 0.737 µM) | 1.56 µg/mL (≈ 1.47 µM) | 0.4 µg/mL (≈ 0.378 µM) | 0.1 µg/mL (≈ 0.0945 µM) | <0.05 µg/mL | <0.05 µg/mL
– | – | – | – | – | – | – | CC(=O)Oc1cccc(C(=O)NCCCCN(Cc2ccc(OCC(=O)NC(C(=O)NC3C(=O)N4C3SC(C)(C)C4C(=O)O)c3ccccc3)cc2)C(=O)c2cccc(OC(C)=O)c2OC(C)=O)c1OC(C)=O (stereo not drawn) [Example 17, N-{4-[2,7-Bis-(2,3-diacetoxybenzoyl)-2,7-diaza-heptyl]-phenoxyacetyl}-ampicillin] | 6.25 µg/mL (≈ 6.1 µM) | 6.25 µg/mL (≈ 6.1 µM) | 1.56 µg/mL (≈ 1.52 µM) | 0.78 µg/mL (≈ 0.762 µM) | <0.05 µg/mL | 0.2 µg/mL (≈ 0.195 µM) | 0.2 µg/mL (≈ 0.195 µM)
– | – | – | – | – | – | – | CC(=O)Oc1cccc(C(=O)NCCCCN(Cc2ccccc2C(=O)NC(C(=O)NC2C(=O)N3C2SC(C)(C)C3C(=O)O)c2ccccc2)C(=O)c2cccc(OC(C)=O)c2OC(C)=O)c1OC(C)=O (stereo not drawn) [Example 18, N-{2-[2,7-Bis-(2,3-diacetoxybenzoyl)-2,7-diaza-heptyl]-benzooyl}-ampicillin] | 0.24 µg/mL (≈ 0.241 µM) | 0.2 µg/mL (≈ 0.201 µM) | 6.25 µg/mL (≈ 6.29 µM) | 0.4 µg/mL (≈ 0.402 µM) | <0.05 µg/mL | 0.04 µg/mL (≈ 0.0402 µM) | <0.05 µg/mL
– | – | – | – | – | – | – | CC(=O)Oc1cccc(C(=O)N(C)CCCN(Cc2ccccc2C(=O)N[C@@H](C(=O)N[C@@H]2C(=O)N3[C@@H]2SC(C)(C)[C@@H]3C(=O)O)c2ccccc2)C(=O)c2cccc(OC(C)=O)c2OC(C)=O)c1OC(C)=O [Example 19, N-{2-[2,6-Bis-(2,3-diacetoxybenzoyl)-2,6-diaza-heptyl]-benzoyl}-ampicillin] | 0.78 µg/mL (≈ 0.785 µM) | 3.12 µg/mL (≈ 3.14 µM) | 1.56 µg/mL (≈ 1.57 µM) | 0.78 µg/mL (≈ 0.785 µM) | 0.1 µg/mL (≈ 0.101 µM) | 0.1 µg/mL (≈ 0.101 µM) | 0.2 µg/mL (≈ 0.201 µM)
– | – | – | – | – | – | – | CC(=O)Oc1cccc(C(=O)NCCCN(CCN(CCCN(Cc2ccc(C(=O)N[C@@H](C(=O)N[C@@H]3C(=O)N4[C@@H]3SC(C)(C)[C@@H]4C(=O)O)c3ccccc3)cc2)C(=O)c2cccc(OC(C)=O)c2OC(C)=O)C(=O)c2cccc(OC(C)=O)c2OC(C)=O)C(=O)c2cccc(OC(C)=O)c2OC(C)=O)c1OC(C)=O [Example 20, N-{4-[2,6,9,13-Tetrakis-(2,3-diacetoxybenzoyl)-2,6,9,13-tetraaza-tridecyl]-benzoyl}-ampicillin] | 1.56 µg/mL (≈ 1.03 µM) | 1.56 µg/mL (≈ 1.03 µM) | 6.25 µg/mL (≈ 4.11 µM) | 1.56 µg/mL (≈ 1.03 µM) | 0.78 µg/mL (≈ 0.513 µM) | 0.4 µg/mL (≈ 0.263 µM) | 0.2 µg/mL (≈ 0.132 µM)
– | – | – | – | – | – | – | COc1ccc(CN(CCCCNC(=O)c2cccc(OC(C)=O)c2OC(C)=O)C(=O)c2cccc(OC(C)=O)c2OC(C)=O)c(C(=O)N[C@@H](C(=O)N[C@@H]2C(=O)N3[C@@H]2SC(C)(C)[C@@H]3C(=O)O)c2ccccc2)c1OC [Example 21, N-{6-[2,7-Bis-(2,3-Diacetoxybenzoyl)-2,7-diaza-heptyl]-2,3-dimethoxy-benzoyl}-ampicillin] | 1.56 µg/mL (≈ 1.48 µM) | 12.5 µg/mL (≈ 11.9 µM) | 0.2 µg/mL (≈ 0.19 µM) | 3.12 µg/mL (≈ 2.96 µM) | 0.4 µg/mL (≈ 0.379 µM) | 0.78 µg/mL (≈ 0.74 µM) | 0.2 µg/mL (≈ 0.19 µM)
– | – | – | – | – | – | – | COC(=O)Oc1cccc(C(=O)N(C)CCCN(Cc2ccccc2C(=O)N[C@@H](C(=O)N[C@@H]2C(=O)N3[C@@H]2SC(C)(C)[C@@H]3C(=O)O)c2ccccc2)C(=O)c2cccc(OC(=O)OC)c2OC(=O)OC)c1OC(=O)OC [Example 22, N-{2-[2,6-Bis-(2,3-di-methoxycarbonyloxy-benzoyl)-2,6-diaza-heptyl]-benzoyl}-ampicillin] | 0.78 µg/mL (≈ 0.737 µM) | 0.4 µg/mL (≈ 0.378 µM) | 6.25 µg/mL (≈ 5.91 µM) | 1.56 µg/mL (≈ 1.47 µM) | 0.4 µg/mL (≈ 0.378 µM) | 0.2 µg/mL (≈ 0.189 µM) | <0.05 µg/mL
– | – | – | – | – | – | – | CC(=O)Oc1cccc(C(=O)NCCCN(CCCN(Cc2ccccc2C(=O)N[C@@H](C(=O)N[C@@H]2C(=O)N3[C@@H]2SC(C)(C)[C@@H]3C(=O)O)c2ccccc2)C(=O)c2cccc(OC(C)=O)c2OC(C)=O)C(=O)c2cccc(OC(C)=O)c2OC(C)=O)c1OC(C)=O [Example 23, N-{2-[2,6,10-Tris-(2,3-diacetoxybenzoyl)-2,6,10-triaza-decyl]-benzoyl}-ampicillin] | 3.12 µg/mL (≈ 2.48 µM) | 1.56 µg/mL (≈ 1.24 µM) | 12.5 µg/mL (≈ 9.94 µM) | 6.25 µg/mL (≈ 4.97 µM) | 0.78 µg/mL (≈ 0.62 µM) | 0.78 µg/mL (≈ 0.62 µM) | 0.2 µg/mL (≈ 0.159 µM)
– | – | – | – | – | – | – | CC(=O)Oc1cccc(C(=O)NCCCN(CC(=O)NC(C(=O)NC2C(=O)N3C2SC(C)(C)C3C(=O)O)c2ccccc2)C(=O)c2cccc(OC(C)=O)c2OC(C)=O)c1OC(C)=O (stereo not drawn) [Example 24, N-[3,7-Bis-(2,3-diacetoxybenzoyl)-3,7-diaza-heptanoyl]-ampicillin] | 0.78 µg/mL (≈ 0.863 µM) | 3.12 µg/mL (≈ 3.45 µM) | 3.12 µg/mL (≈ 3.45 µM) | 3.12 µg/mL (≈ 3.45 µM) | 0.2 µg/mL (≈ 0.221 µM) | 3.12 µg/mL (≈ 3.45 µM) | 0.2 µg/mL (≈ 0.221 µM)
– | – | – | – | – | – | – | CC(=O)Oc1cccc(C(=O)NCCCCCN(CC(=O)NC(C(=O)NC2C(=O)N3C2SC(C)(C)C3C(=O)O)c2ccccc2)C(=O)c2cccc(OC(C)=O)c2OC(C)=O)c1OC(C)=O (stereo not drawn) [Example 25, N-[3,9-Bis-(2,3-diacetoxybenzoyl)-3,9-diaza-nonanoyl]-ampicillin] | 0.04 µg/mL (≈ 0.0429 µM) | 0.16 µg/mL (≈ 0.172 µM) | 2.5 µg/mL (≈ 2.68 µM) | 0.16 µg/mL (≈ 0.172 µM) | <0.005 µg/mL | 0.04 µg/mL (≈ 0.0429 µM) | 0.02 µg/mL (≈ 0.0215 µM)
– | – | – | – | – | – | – | CC(=O)Oc1cccc(C(=O)NCCN(CC(=O)N[C@@H](C(=O)N[C@@H]2C(=O)N3[C@@H]2SC(C)(C)[C@@H]3C(=O)O)c2ccccc2)C(=O)c2cccc(OC(C)=O)c2OC(C)=O)c1OC(C)=O [Example 26, N-[3,6-Bis-(2,3-diacetoxybenzoyl)-3,6-diaza-hexanoyl]-ampicillin] | 0.78 µg/mL (≈ 0.877 µM) | 0.78 µg/mL (≈ 0.877 µM) | 3.12 µg/mL (≈ 3.51 µM) | 0.78 µg/mL (≈ 0.877 µM) | 0.1 µg/mL (≈ 0.112 µM) | 0.4 µg/mL (≈ 0.449 µM) | 0.78 µg/mL (≈ 0.877 µM)
25 µg/mL (≈ 71.5 µM) | > 100 µg/mL | 0.4 µg/mL (≈ 1.14 µM) | 6.25 µg/mL (≈ 17.9 µM) | 6.25 µg/mL (≈ 17.9 µM) | > 100 µg/mL | > 100 µg/mL | CC1(C)S[C@@H]2[C@H](NC(=O)[C@H](N)c3ccccc3)C(=O)N2[C@H]1C(=O)O [ampicillin, reference compound] | – | – | – | – | – | – | –
50 µg/mL (≈ 108 µM) | 6.25 µg/mL (≈ 13.5 µM) | 0.4 µg/mL (≈ 0.867 µM) | 6.25 µg/mL (≈ 13.5 µM) | 6.25 µg/mL (≈ 13.5 µM) | 6.25 µg/mL (≈ 13.5 µM) | 25 µg/mL (≈ 54.2 µM) | CC1(C)S[C@@H]2[C@H](NC(=O)[C@H](NC(=O)N3CCNC3=O)c3ccccc3)C(=O)N2[C@H]1C(=O)O [azlocillin, reference compound] | – | – | – | – | – | – | –
0.06 µg/mL (≈ 0.156 µM) | 0.4 µg/mL (≈ 1.04 µM) | 0.1 µg/mL (≈ 0.261 µM) | 0.04 µg/mL (≈ 0.104 µM) | 0.04 µg/mL (≈ 0.104 µM) | 0.2 µg/mL (≈ 0.522 µM) | > 100 µg/mL | C[C@@H](O)[C@H]1C(=O)N2C(C(=O)O)=C(S[C@@H]3CN[C@H](C(=O)N(C)C)C3)[C@H](C)[C@H]12 [meropenem, reference compound] | – | – | – | – | – | – | –
